Assay results taken from US20120329837A1, “CATHEPSIN INHIBITORS FOR TREATING MICROGLIA-MEDIATED NEURON LOSS IN THE CENTRAL NERVOUS SYSTEM” (ViroBay, Inc., priority 2011, published 2012).

Target: T1, Human cathepsin S (Homo sapiens, UniProt P25774)
Assay: Cathepsin S Assay (Z-Val-Val-Arg-AMC hydrolysis)
Format: biochemical
Conditions: Table 1
Protocol: Solutions of test compounds in varying concentrations were prepared in 10 μL of dimethyl sulfoxide (DMSO) and then diluted into assay buffer (40 μL, comprising: MES, 50 mM (pH 6.5); EDTA, 2.5 mM; and NaCl, 100 mM); β-mercaptoethanol, 2.5 mM; and BSA, […]. Human cathepsin S (0.05 pMoles in 25 μL of assay buffer) was added to the dilutions. The assay solutions were mixed for 5-10 seconds on a shaker plate, covered and incubated for 30 min at room temperature. Z-Val-Val-Arg-AMC (4 nMoles in 25 μL of assay buffer containing 10% DMSO) was added to the assay solutions and hydrolysis was followed spectrophotometrically (at λ 460 nm) for 5 min. Apparent inhibition constants (Ki) were calculated from the enzyme progress curves using standard mathematical models.

T1 sequence (P25774 115-331): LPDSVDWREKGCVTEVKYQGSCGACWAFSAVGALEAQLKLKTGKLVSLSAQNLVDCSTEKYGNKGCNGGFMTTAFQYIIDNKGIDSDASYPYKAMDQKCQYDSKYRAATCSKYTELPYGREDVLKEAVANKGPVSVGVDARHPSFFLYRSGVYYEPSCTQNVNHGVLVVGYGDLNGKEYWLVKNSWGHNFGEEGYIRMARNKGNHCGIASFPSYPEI

| Structure (SMILES) | Ki |
| --- | --- |
| CCCCC(F)(F)C[C@H](N[C@@H](c1ccc(F)cc1)C(F)(F)F)C(=O)NC1(C#N)CC1 [drawing 33] | < 0.01 µM |
| CCCC(F)(F)C[C@H](N[C@@H](c1ccc(F)cc1)C(F)(F)F)C(=O)NC1(C#N)CC1 [drawing 32] | < 0.01 µM |

Further lines, results first:

| Ki | Structure (SMILES) |
| --- | --- |
| < 0.01 µM | CCC(F)(F)C[C@H](N[C@@H](c1ccc(F)cc1)C(F)(F)F)C(=O)NC1(C#N)CC1 [drawing 30] |
| < 0.01 µM | CC(C)CC(F)(F)C[C@H](N[C@@H](c1ccc(F)cc1)C(F)(F)F)C(=O)NC1(C#N)CC1 [drawing 31] |

Same assay, conditions: Table 3

| Structure (SMILES) | Ki |
| --- | --- |
| CCC(F)(F)CC[C@H](N[C@@H](c1ccc(F)cc1)C(F)(F)F)C(=O)NC1(C#N)CC1 | < 0.02 µM |
| N#CC1(NC(=O)[C@H](CC(F)(F)CC2CC2)N[C@@H](c2ccc(F)cc2)C(F)(F)F)CC1 | < 0.02 µM |
| N#CC1(NC(=O)[C@H](CC(F)(F)Cc2ccccc2)N[C@@H](c2ccc(F)cc2)C(F)(F)F)CC1 | < 0.02 µM |
| CCCCC(F)(F)C[C@H](N[C@@H](c1ccc(F)cc1)C(F)(F)F)C(=O)NC1(C#N)CC1 [drawing 44] | < 0.02 µM |
| N#CC1(NC(=O)[C@H](CC(F)(F)c2ccccc2)N[C@@H](c2ccc(F)cc2)C(F)(F)F)CC1 | < 0.02 µM |

The next lines start with the values.

| Ki | Structure (SMILES) |
| --- | --- |
| < 0.02 µM | CCCC(F)(F)C[C@H](N[C@@H](c1ccc(F)cc1)C(F)(F)F)C(=O)NC1(C#N)CC1 [drawing 43] |
| < 0.02 µM | CCC(F)(F)C[C@H](N[C@@H](c1ccc(F)cc1)C(F)(F)F)C(=O)NC1(C#N)CC1 [drawing 42] |
| < 0.02 µM | CC(C)CC(F)(F)C[C@H](N[C@@H](c1ccc(F)cc1)C(F)(F)F)C(=O)NC1(C#N)CC1 [drawing 40] |

Same assay, conditions: text statement for drawn compounds

| Ki | Structure (SMILES) |
| --- | --- |
| < 0.01 µM | CC(C)CS(=O)(=O)C[C@H](N[C@@H](c1ccc(F)cc1)C(F)(F)F)C(=O)NC1(C#N)CC1 |

Target: T1, Human cathepsin S
Assay: Cathepsin S Assay (Z-Val-Val-Arg-AMC hydrolysis)
Format: biochemical
Conditions: Table 2; Enzyme CatS

| IC50 | Structure (SMILES) |
| --- | --- |
| < 0.01 µM | N#CC1(NC(=O)[C@H](CC(F)(F)CC2CC2)N[C@@H](c2ccc(C(F)(F)F)cc2)C(F)(F)F)CC1 |
| < 0.01 µM | N#CC1(NC(=O)[C@H](CC(F)(F)CC2CC2)N[C@@H](c2ccccc2)C(F)(F)F)CC1 |
| < 0.01 µM | COc1ccc([C@H](N[C@@H](CC(F)(F)CC2CC2)C(=O)NC2(C#N)CC2)C(F)(F)F)cc1 |
| < 0.01 µM | N#CC1(NC(=O)[C@H](CC(F)(F)CC2CC2)N[C@@H](c2ccc(F)c(F)c2)C(F)(F)F)CC1 |
